Measurements as given in PMC11040665, “Aminothiazolone Inhibitors Disrupt the Protein–RNA Interaction of METTL16 and Modulate the m^6A RNA Modification” (JACS Au, 2024).
“Also recorded” adds a separate entry of the source.

Assays:
His-tagged METTL16 MTD = target: T1, His-tagged METTL16 MTD (Homo sapiens, UniProt Q86W50); experiment: switchSENSE biosensor assay; assay type: binding; conditions: potassium salt of compound 45 was used
T1 construct: His-tagged METTL16 (1–291) was purified using the same protocol, without protease cleavage; made in house; host or cells: E. coli Rosetta (DE3)
T1 sequence (Q86W50 1-291): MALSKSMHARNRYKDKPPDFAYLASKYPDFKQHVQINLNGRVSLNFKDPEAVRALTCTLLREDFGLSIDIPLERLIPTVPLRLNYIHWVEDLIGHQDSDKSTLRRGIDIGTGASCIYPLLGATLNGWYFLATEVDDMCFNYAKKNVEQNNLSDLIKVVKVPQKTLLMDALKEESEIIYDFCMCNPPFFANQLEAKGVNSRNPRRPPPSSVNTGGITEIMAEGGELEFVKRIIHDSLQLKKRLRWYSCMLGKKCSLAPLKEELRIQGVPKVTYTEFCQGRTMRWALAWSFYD
Procedure: The biosensor assay was performed using a heliX instrument (Dynamic Biosensors) with a heliX adapter chip. The His-capture kit (HK-NTA-1) was used to functionalize and regenerate the chip. 100 nM His-tagged METTL16 MTD was captured to the surface and regenerated with imidazole solution (250 mM in 10 mM Tris, pH 7.4, 140 mM NaCl, 0.05% Tween 20, 50 μM EDTA, 50 μM EGTA) each time after measurement. PE140 buffer was used as the running buffer (10 mM Na2HPO4/NaH2PO4, pH 7.4, 140 mM NaCl, 0.05% Tween 20, 50 μM EDTA) and 0.2% DMSO was used as concertation 0. The association and dissociation flow rates were 200 μL/min, with an association time of 90 s and a dissociation time of 120 s. Data were analyzed using heliOS using the ‘kinetics mono- & biphasic-free amplitudes fitting’ mode.

[1] = target: T2, METTL16 MTD–U6 snRNA Δ interaction (Homo sapiens, UniProt Q86W50); experiment: FP assay with Cy5-labeled U6 snRNA Δ; assay type: binding
T2 construct: METTL16 MTD (1–291) was subcloned to pOPINB plasmid; His tag followed by HRV 3C cleavage site (N, cleaved yes); made in house; host or cells: E. coli Rosetta (DE3)
T2 sequence (Q86W50 1-291): T1 sequence (Q86W50 1-291)

METTL16 (1-291) = target: T3, METTL16 (1-291) (Homo sapiens, UniProt Q86W50); experiment: Covalent binding evaluation by protein LC–MS; conditions: 30 μM METTL16 (1-291), 100 μM compound, 30 or 150 min
T3 construct: METTL16 MTD (1–291) was subcloned to pOPINB plasmid; His tag followed by HRV 3C cleavage site (N, cleaved yes); made in house; host or cells: E. coli Rosetta (DE3)
T3 sequence (Q86W50 1-291): T1 sequence (Q86W50 1-291)
Procedure: To evaluate whether the aminothiazolones covalently bind to METTL16, we performed the LC–MS analysis after incubating the protein with aminothiazolones for 30 and 150 min, respectively. In the case of covalent binding, we would expect to observe the formation of covalent adducts, which would accrue over time. […] Besides the LC–MS analysis result, an irreversible inhibition counter screening indicated the reversible inhibitory activity of the aminothiazolones (Figure S8A).
Figure S7. Covalent evaluation of METTL16 inhibitors via LC-MS. (A) Deconvoluted mass spectrum of 30 µM METTL16 (1-291) incubated with 1% DMSO for 30 min (left) and 150 min (right). (B), (C), (D) Deconvoluted […]
(right). Expected Mass for METTL16 (1-291), 33455.7 Da. The observed small mass shift of ~50 Da appeared in both the DMSO control and compound-treated samples was probably formed by the solvent used in the LC-MS.
(1 picture or pasted object on this page, not shown here)
For computational docking analysis of aminothiazolones to the RNA binding site of METTL16 (PDB code: 6B91)2 Schrödinger® Maestro 12.3 was used. […]
Chemical states were generated with the ligand preparation module and METTL16 conformation with the protein preparation module. […] The glide dock module was used and the results were evaluated according to interactions between small molecules and METTL16, small molecule orientations, docking scores and solvent exposure patterns. […]
METTL16 MTD protein was diluted in SEC buffer (20mM pH 7.5, 200 mM NaCl, 0.5 mM TCEP,5% v/v glycerol) to a final concentration of 30 µM, and incubated with DMSO or 100 μM compound (final 1% DMSO) at room temperature. After incubation (30 min or 150 min), the samples were analyzed on an Agilent 1260 II Infinity system equipped with an electrospray ion source in positive mode, run through a Desalting cartridge (AdvanceBio Desalting-RP, 2.1 mm, 12.5mm, Agilent) with a gradient of 5-80% HPLC-grade acetonitrile (+ 0.1% TFA) in HPLC-grade water (+ 0.1% TFA) (flowrate: 0.4 mL/min, runtime: 6 min). […]

[2] = target: T4, methyltransferase activity of METTL16 MTD toward MAT2A-hp1 (Homo sapiens, UniProt Q86W50); experiment: In vitro methylation assay (MTase Glo); assay type: biochemical; conditions: for inhibition of the methyltransferase activity of METTL16 MTD, in words: RNA substrate MAT2A-hp1
T4 construct: METTL16 MTD (1–291) was subcloned to pOPINB plasmid; His tag followed by HRV 3C cleavage site (N, cleaved yes); made in house; host or cells: E. coli Rosetta (DE3)
T4 sequence (Q86W50 1-291): T1 sequence (Q86W50 1-291)
Procedure: Next, we evaluated the inhibition of the METTL16 methylation using the MTase Glo assay kit (Promega) measuring the methyltransferase activity based on the formation of the methylation product S-adenosyl homocysteine, which was converted to ADP by the MTase-Glo reagent to trigger a subsequent luciferase reaction (Figure 5E).
The methyltransferase activity of METTL16 MTD was measured using an MTase Glo kit (Promega V7601) following the manufacturer’s instructions. The reaction was carried out in white 384-well plates (Corning #3824), with a total methyltransferase reaction volume of 8 μL, and the final concentrations of METTL16 MTD, MAT2A-hp1, and SAM were 1, 1, and 10 μM, respectively, and 1% of DMSO was used as a control. […] To use SAM at a different final concentration, the concentration of SAM was adjusted accordingly in a 2× substrate solution.

MDA-MB-231 cells = experiment: Colony formation assay; assay type: cell-based, human; conditions: 7 days, three tested concentrations
Procedure: MDA-MB-231 cells were collected and seeded with the density of 1000 cells per well into 24-well plates; after being cultured overnight, the medium was exchanged and treated with indicated compounds or DMSO (0.5%) as the control. The medium change and treatment were performed every 3 days. After 7 days, the cell culture medium was discarded, and cells were washed with PBS and fixed with 4% paraformaldehyde solution at room temperature for 15 min; the paraformaldehyde solution was removed, and cells were washed with PBS again to remove the paraformaldehyde. Then cells were stained with 0.1% (w/v) crystal violet. After staining for 15 min, the cells were washed with H2O to remove the extra dye and then photographed.

SMILES | KA, biosensor assay (His-tagged METTL16 MTD) [M^-1] | Kd (His-tagged METTL16 MTD) [nM] | IC50 [1] [nM] | covalent adduct formation with METTL16 (LC–MS) (METTL16 (1-291)) | inhibition of the methyltransferase activity of METTL16 MTD, in words [2] | inhibition on colony formation, in words (MDA-MB-231 cells) | inhibition at 50 µM ([2]; at 50 μM, 1 μM METTL16 MTD, 1 μM MAT2A-hp1, 10 μM SAM) [%]
CN1C(=O)C(=C2SC(NS(=O)(=O)c3ccc(C(=O)O)cc3)=NC2=O)c2cc(Br)ccc21 [Compound 45] | 7.43 ± 0.84E+5 | 1350 | 2500 | no such covalent adduct with a mass shift was observed | dose-dependently inhibited | did not show obvious inhibition on colony formation | –
O=C1N=C(NS(=O)(=O)c2ccc(C(=O)O)cc2)SC1=C1C(=O)Nc2ccc(Br)cc21 [Compound 47] | 5.67 ± 0.48E+5 | 1760 | 6400 | no such covalent adduct with a mass shift was observed | dose-dependently inhibited; also recorded: potent inhibitory activity | mild inhibitory activity against colony formation | > 50
